The source of these data is publication PMC9917132, “Tenebrio molitor as a Simple and Cheap Preclinical Pharmacokinetic and Toxicity Model” (International Journal of Molecular Sciences, 2023).

The test system of data set [1] is adult exemplars of T. molitor Coleoptera. Kind of data set: Toxicity of vehicles in adult T. molitor Coleoptera (survival, vitals monitored daily for seven days). Format: in vivo, Tenebrio molitor. As to conditions: for Survival %: groups of six TMC, seven days; for tolerability: 1 µL per TMC (lower dose). How it is done:
Considering the limited volume of hemolymph, we considered injecting 1 or 2 µL of vehicles per TMC. The most common vehicles used for i.v. and i.p. studies were administered to experimental groups of six TMC and vitals were monitored daily for seven days. Results are reported in Table 1, expressed as survival %.
TMC were randomly selected for toxicity assessment. TMC older than 3 days were discarded. Compounds were solubilized in the opportune vehicle and injected on the hemocoel using a Hamilton syringe, (7001 KH, volume 1 µL, needle size 25 s, cone tip), by administering 1 µL of compound on the TMC dorsal side, between the pronotum and elytron.

A short description of data set [2]: Acute toxicity (LD50) in adult T. molitor Coleoptera (TMC) after injection in the hemocoel. As to conditions: Tenebrio molitor, in vivo, other: injection in the hemocoel; 1 µL in 100% DMSO injected in hemocoel; mortality recorded daily for 7 days; highest dose 2000 mg/kg. It is filed as in vivo, Tenebrio molitor. How it is done: (§1) The literature was carefully studied to identify the starting dose of a panel of drugs; however, when no data were available, the protocol described in Figure 1 was adopted, using 1 TMC and starting from the dose of 200 mg/kg.
(§2) The protocol depicted in Figure 2 has been adopted to determine LD50, starting from the opportune dose determined as described above. A panel of 20 drugs available on the market, including antivirals, antibiotics and the representative drugs for several pharmaceutical classes, was analyzed (Table 2).
(§3) Figure 2 Flowchart for LD50 determination. Starting from the opportune initial dose, LD50 was determined by changing the dose based on results and increasing the number of […] for final determinations. GHS cat.: Globally Harmonized System category. The numbers on the circles represent the number of deaths in exemplars.
(§4) TMC were randomly selected for toxicity assessment. TMC older than 3 days were discarded.
(§5) Acute toxicity was determined following the Organization for Economic Cooperation and Development (OECD) guidelines for acute toxicity of chemicals. All the available information on the test substance was considered to select the toxic dose of test compounds. Data were collected considering LD50 already reported for humans, rats and mice or, when possible, insects (e.g., Galleria mellonella). The initial dose, expressed in mg/kg, was calculated as the lowest LD50 reported in the literature. When no data were found in the literature, the starting dose of 200 mg/kg was used and the range-finding study was conducted with 1 TMC, by adapting OECD guidelines (Figure 1). To perform LD50 calculation study, 5 TMC were injected with the selected dose, and mortality was recorded daily for 7 days. Each experiment included 1 control group treated with DMSO. […] If 1 or less TMC died, the experiment was performed with a higher dose. If 2 or 3 TMC died, the experiment was repeated by re-testing the initial dose with 10 TMC. […] The experiment continued until a toxic dose was determined.

Another data set deals with Mice. The note with it: cited from earlier work.
For the next data set, the system named is Rats. As to conditions: cited from earlier work; for LD50: reported.
For data set [3] the following is noted: NADPH-generating system, 37 °C, pH 7.4. Here is the method: To characterize their phase I metabolism, the drugs were incubated with human or rat microsomes and their main metabolites were determined by HPLC-MS analysis and compared to data already reported (Table 3).
After centrifuging the reaction mixtures, the parent drug and its metabolites were characterized by LC-UV-MS [38].
HPLC analysis was performed using an Agilent 1100 LC/MSD VL system (G1946C) (Agilent Technologies, Palo Alto, CA) comprising a vacuum solvent degassing unit, a binary high-pressure gradient pump and a 1100 series UV detector; a 1100 MSD model VL benchtop mass spectrometer was used to perform the chromatographic analysis. Chromatographic separation was obtained using a Phenomenex Kinetex C18-100 Å column (100–4.6 mm, 5 μm particle size). […] The injection volume was 20 μL and the flow rate was 0.4 mL min^−1. The orthogonal spray API-ES was installed on the Agilent 1100 series mass spectra-detection single-quadrupole instrument (Agilent Technologies, Palo Alto, CA, USA). N2 was used as a nebulizing and drying gas. The vaporization temperature, capillary voltage, fragmentor voltage, drying gas flow and pressure were set at […], respectively. […] The LC-ESI-MS measurements were performed by operating in either the positive or negative ion mode. Spectra were acquired over the scan range m/z 100–1500 using a step size of 0.1 u. […]

For data set [4] the following is noted: cited from earlier work; for T ½ / Vd: PK literature data.
Details of data set [5]: method as in doi:10.1201/9780429460418. As to conditions: literature data; cited from earlier work.
Data set [6] is described as follows: Preliminary in vivo PK in TMC (hemolymph analysis by HPLC). As to conditions: single dose equal to half the LD50 (62.5 or 150 mg/kg); hemolymph at 0, 1, 2, 4, 8, 24 hpt.
On the set-up of data set [7]: method as in doi:10.1201/9780429460418. As to conditions: literature data; cited from earlier work. The source holds these as a separate data set.
In the next data set the test system is dogs. The note with it: i.v., reported; cited from earlier work.
Another data set has as its system guinea pigs. As to conditions: i.v., reported; cited from earlier work.
Another data set concerns Tenebrio molitor. Nature of the data set: Acute toxicity (LD50) in adult T. molitor Coleoptera (TMC) after injection in the hemocoel. It is filed as in vivo. The note with it: dose of 2000 mg/kg. How it is done: as §1, §2, §3, §4, §5
On the set-up of data set [8]: method as in PMID 33649113. The note with it: oral administration; cited from earlier work.
Where [9] appears, read: in some people, depending on age and state of health.

Read-outs that look alike come from different tables or passages of the source.

With `CC(C)=O` [Acetone], the Survival % is listed as 100% in [1] (1 µL injected per TMC) and 16.6% in data set [1] (2 µL injected per TMC). Also, in data set [1], the tolerability entry is reported as “well tolerated”.

`Nc1nc2c(ncn2COCCO)c(=O)[nH]1` [Acyclovir]: in data set [2], the LD50 at 7 days is > 2000 mg/kg. In addition, in the data set with Mice, the “LD50 Mice ip” value is listed as 1000 mg/kg. Also, the “LD50 (dose reported by Tucker et al.)” value in the data set on Rats (rats) is “greater than 650 mg/kg”.

In turn, `CC1(C)S[C@@H]2[C@H](NC(=O)[C@H](N)c3ccc(O)cc3)C(=O)N2[C@H]1C(=O)O` [Amoxicillin] displayed a 50% lethal dose (LD50) at 7 days in [2] of 750 mg/kg. The “LD50 Rats ip” value with Rats is recorded as 2870 mg/kg.

Molecule `NC(=O)N1c2ccccc2C=Cc2ccccc21` [Carbamazepine] registered an LD50 at 7 days in data set [2] of 125 mg/kg. In addition, in [3] (human liver microsomes 0.2 mg/mL, 60 min), the “Stability % Human Microsomes” value turned out to be 77.54%. Further, in [4], the “T ½” value is reported as 5 h and the Vd was 0.8 to 1.9 L/kg. The “Protein Binding” value in [5] is reported as 70–80%. Moreover, in the data set on Mice, the “LD50 Mice ip” value is recorded as 114 mg/kg. Moreover, the “LD50 Rats ip” value in the data set on Rats is 158 mg/kg. Besides, the “elimination / metabolism of parent drug in TMC hemolymph” value in data set [6] was “decreased after 4h”.

For `O=C(N[C@H](CO)[C@H](O)c1ccc([N+](=O)[O-])cc1)C(Cl)Cl` [Chloramphenicol], in [2], the LD50 at 7 days is 300 mg/kg. Also, in the data set on Mice, the “LD50 Mice iv” value is reported as 171 mg/kg.

Consider `CN(C)CCCN1c2ccccc2Sc2ccc(Cl)cc21` [Chlorpromazine], for which the median lethal dose (LD50) at 7 days in data set [2] came to 300 mg/kg. Besides, the “Stability % Rats Microsomes” value in data set [3] (rat liver microsomes 0.2 mg/mL, 30 min) amounted to 77.99%. In addition, in data set [4], the “T ½” value is 8 to 35 h and the Vd was 7 to 20 L/kg. In addition, in data set [4] (setting [9]), the “t ½ (prolonged)” value is reported as 60 h and the “t ½ (reduced)” value is on record as 2 h. For the same molecule, the “Protein Binding” value in data set [5] was 95–98%. Also, the LogS in data set [7] is reported as −5.01. Further, in the data set with Mice, the “LD50 Mice ip” value is 14 mg/kg and the “LD50 Mice iv” value is given as 106 mg/kg. Besides, the “LD50 Rats ip” value with Rats is listed as 137 mg/kg. Also, the “elimination / metabolism of parent drug in TMC hemolymph” value in data set [6] was “extensively metabolized”.

In data set [2], `CN/C(=N/CCSCc1nc[nH]c1C)NC#N` [Cimetidine] showed an LD50 at 7 days of 750 mg/kg. Also, in the data set on Mice, the “LD50 Mice ip” value is given as 306 mg/kg and the “LD50 Mice iv” value is 150 mg/kg. In the data set on Rats, the “LD50 Rats ip” value is given as 328 mg/kg and the “LD50 Rats iv” value is reported as 326 mg/kg.

The molecule `Cc1onc(-c2ccccc2Cl)c1C(=O)N[C@@H]1C(=O)N2[C@@H]1SC(C)(C)[C@@H]2C(=O)O` [Cloxacillin] returned an LD50 at 7 days in data set [2] of 750 mg/kg. Besides, the “LD50 Rats iv” value with Rats is reported as 1660 mg/kg.

In data set [2], `COc1ccc2c3c1O[C@H]1[C@@H](O)C=C[C@H]4[C@@H](C2)N(C)CC[C@@]341` [Codeine] displayed an LD50 at 7 days of 50 mg/kg. In the data set on Mice, the “LD50 Mice ip” value was 60 mg/kg. For the same molecule, in the data set on Rats, the “LD50 Rats ip” value is on record as 100 mg/kg and the “LD50 Rats iv” value is recorded as 75 mg/kg.

Consider `C[S+](C)[O-]` [DMSO], for which the figures for the Survival % in data set [1] (1 µL injected per TMC) and in data set [1] (2 µL injected per TMC) were 100% and 0%, respectively. Further, the tolerability result in data set [1] was “well tolerated”. Further, in data set [1] (2 µL per TMC), the lethality is reported as 100%. Besides, the LD50 in the data set on dogs is 2500 mg/kg; in the data set on guinea pigs it was 6500 mg/kg; in the data set on Mice (i.v., mice, reported), 20600 mg/kg; in the data set with Rats (i.v., rats), 5400 mg/kg.

Turning to `CCO` [EtOH], the Survival % in data set [1] (1 µL injected per TMC) is 100%; in [1] (2 µL injected per TMC), 50%. Besides, the tolerability result in data set [1] is “well tolerated”. Further, in the data set with Rats (rats, route not given), the LD50 is 1400 mg/kg.

Regarding `CC(C(=O)O)c1cccc(C(=O)c2ccccc2)c1` (stereo not shown) [Ketoprofen], the “LD50 Mice ip” value in the data set with Mice is 300 mg/kg. Moreover, in the data set on Rats, the “LD50 Rats ip” value is on record as 80 mg/kg and the “LD50 Rats iv” value is reported as 350 mg/kg.

The molecule `Cc1cccc(C)c1NC(=O)C1CCCCN1C` (stereo not shown) [Mepivacaine] had a median lethal dose (LD50) at 7 days in [2] of 125 mg/kg. In addition, in the data set with Mice, the “LD50 Mice ip” value was 135 mg/kg and the “LD50 Mice iv” value was 35 mg/kg. Besides, the “LD50 Rats iv” value in the data set with Rats is 30 mg/kg.

Molecule `COCCc1ccc(OCC(O)CNC(C)C)cc1` (stereo not shown) [Metoprolol] gave an LD50 at 7 days in data set [2] of 500 mg/kg. Besides, in the data set with Mice, the “LD50 Mice ip” value is on record as >200 mg/kg and the “LD50 Mice iv” value is on record as 62 mg/kg. Further, the “LD50 Rats iv” value with Rats is 71.9 mg/kg.

In the case of `CC(C)C(=O)OC[C@H]1O[C@@H](n2ccc(NO)nc2=O)[C@H](O)[C@@H]1O` [Molnupiravir], the 50% lethal dose (LD50) at 7 days in data set [2] was > 2000 mg/kg. For the same molecule, the “toxicity at the highest dose” value with Tenebrio molitor is recorded as “absence of toxicity”. The median lethal dose (LD50) in data set [8] is on record as > 800 mg/kg.

Take `CC(=O)Nc1ccc(O)cc1` [Paracetamol]: the LD50 at 7 days in data set [2] came out at 125 mg/kg. Moreover, the “LD50 Mice ip” value in the data set with Mice is 340 mg/kg.

Consider `O=C(O)c1ccccc1O` [Salicylic acid], for which the “LD50 Mice ip” value with Mice is 300 mg/kg.

Molecule `Nc1ccc(S(=O)(=O)Nc2ncccn2)cc1` [Sulfadiazine] registered a 50% lethal dose (LD50) at 7 days in data set [2] of 300 mg/kg. Further, in the data set with Mice, the “LD50 Mice ip” value is on record as 750 mg/kg and the “LD50 Mice iv” value is reported as 180 mg/kg. In the data set with Rats, the “LD50 Rats ip” value is reported as 446 mg/kg and the “LD50 Rats iv” value is recorded as 880 mg/kg.

As to `COc1cc(Cc2cnc(N)nc2N)cc(OC)c1OC` [Trimethoprim], the LD50 at 7 days in data set [2] worked out at 300 mg/kg. In the data set with Mice, the “LD50 Mice ip” value is reported as 400 mg/kg and the “LD50 Mice iv” value is 132 mg/kg. In addition, the “LD50 Rats ip” value in the data set on Rats was 500 mg/kg.
